Data on four compounds can be found in patent US20100087466A1, “NOVEL SMALL MOLECULE DNAK INHIBITORS” (priority 2008, published 2010).

Test [1] concerns H. influenzae (Strain 110). As to the kind of experiment: H. influenzae Inhibition Assay (broth microdilution MIC), Strain 110. It counts as cell-based. The following applies: for MIC: Haemophilus influenzae. The method, then: (§1) An in vitro assay may be conducted by determining the minimum inhibitory concentration (MIC) of the small molecules to Gram negative bacteria, such as H. influenza. H. influenzae MICs are determined using CLSI recommended broth microdilution methodology (M7-A7). Test agent powders are dissolved in DMSO, serial dilutions are also made in DMSO and 1:100 dilutions of each are then prepared in Haemophilus Test media (HTM). 100 μL of each final dilution are transferred to appropriate wells of a 96 well microtiter plate. The test organism is suspended in saline or Mueller Hinton broth to an organism density equivalent to a 0.5 McFarland Standard. 300 μL of the H. influenzae suspension is transferred to 11 mLs of HTM and 10 μL of this suspension is transferred to each well of the microtiter plate. […] Colony counts are determined for each inoculum and expected range of final organism concentration is 3-7×10^5 CFU/mL. One of the recommended H. influenzae quality control strains (ATCC 49247 or 49766) is also tested on each testing day.
as §1, with “H.” for “An in vitro assay may be conducted by determining the minimum inhibitory concentration (MIC) of the small molecules to Gram negative bacteria, such as H. influenza. H.”
(§2) Pyrrhocoricin was used as a control. MIC is defined as the lowest concentration of an anti-bacterial agent that will inhibit the visible growth of a microorganism after overnight incubation.
(Dilution methods test growth across graded concentrations, often in twofold steps.)

A further test addresses DnaK (Escherichia coli, UniProt P0A6Y8). As to the kind of experiment: DnaK Inhibition Assay (DnaK induced refolding of denatured firefly luciferase). It counts as biochemical, E. coli. The conditions noted are these: DnaK 200 nM, DnaJ 100 nM, GrpE 400 nM; for pIC50: read-out: DnaK IC50; for IC50: read-out: DnaK IC50(μg/ml) (converted). The method, then:
Inhibition of the bacterial DnaK chaperone system may be evaluated by inhibition of the DnaK induced refolding of denatured firefly luciferase. More specifically, firefly luciferase is denatured by treatment with 8N guanidium hydrochloride at room temperature for 30 mins and then 5° C. for 1 h. After dilution into cold MOPS buffer augmented with ATP (2.5 mM) and DTT (12.5 mM) and standing for a further hour, the denatured luciferase is refolded by addition to a mixture of chaperone proteins in MOPS buffer, resulting in a reaction mixture containing denatured luciferase (24 nM), DnaK (200 nM), DnaJ (100 nM) and GrpE (400 nM). The extent of refolding is determined by addition of a luciferase substrate and measurement of the emitted chemoluminescence. In this format the substrate is the commercially available luciferase “Steady-Glo” reagent from Promega, Inc. Inhibition of DnaK induced refolding is determined by premixing the chaperone proteins with the test agent at concentrations of test agent ranging from 1-100 μg/mL. The extent of refolding is compared to that with no test reagent, and the IC50 is estimated by fitting the data to a standard sigmoidal dose-response curve.
Inhibition of the bacterial DnaK chaperone system was evaluated by inhibition of the DnaK induced refolding of denatured firefly luciferase. Firefly luciferase was denatured by treatment with 8N guanidium hydrochloride at room temperature for 30 mins and then 5° C. for 1 h. After dilution into cold MOPS buffer augmented with ATP (2.5 mM) and DTT (12.5 mM) and standing for a further hour, the denatured luciferase was refolded by addition to a mixture of chaperone proteins in MOPS buffer, resulting in a reaction mixture containing denatured luciferase (24 nM), DnaK (200 nM), DnaJ (100 nM) and GrpE (400 nM). The extent of refolding was determined by addition of a luciferase substrate and measurement of the emitted chemoluminescence. In this format the substrate is the commercially available luciferase “Steady-Glo” reagent from Promega, Inc. Inhibition of DnaK induced refolding was determined by premixing the chaperone proteins with the test agent at concentrations of test agent ranging from 1-100 μg/mL. The extent of refolding was compared to that with no test reagent, and the IC50 was estimated by fitting the data to a standard sigmoidal dose-response curve.
IC50 is defined as the concentration in μM at which 50% inhibition of DnaK induced refolding of denatured firefly luciferase occurs.

The subject of test [2] is H. influenzae (Strain 109). As to the kind of experiment: H. influenzae Inhibition Assay (broth microdilution MIC), Strain 109. It is filed as cell-based. The following applies: for MIC: Haemophilus influenzae. The method, then:
as §1
as §1, with “H.” for “An in vitro assay may be conducted by determining the minimum inhibitory concentration (MIC) of the small molecules to Gram negative bacteria, such as H. influenza. H.”
as §2

The mark [3] stands for this setting: Strain 110, HTM, 35° C., 20-24 hours, read-out: H. influenzae (Strain 110) MIC.
[4] abbreviates: Strain 109, HTM, 35° C., 20-24 hours, read-out: H. influenzae (Strain 109) MIC.

Molecules are shown by their SMILES. pIC50: −log10 of the molar value. Values after ≈ are worked out from the molar mass of the structure shown. Like-named read-outs stand apart in the source and are kept apart here. Non-standard residues stand in square brackets, D forms with d. Residues, ends and D or L forms follow the SMILES beside them. *: point of attachment. Phe(4-F) = N[C@@H](Cc1ccc(F)cc1)C(=O)O; Bn = c1ccc(C*)cc1 Some results are limits rather than exact numbers.

Sequence of DnaK (P0A6Y8 2-638): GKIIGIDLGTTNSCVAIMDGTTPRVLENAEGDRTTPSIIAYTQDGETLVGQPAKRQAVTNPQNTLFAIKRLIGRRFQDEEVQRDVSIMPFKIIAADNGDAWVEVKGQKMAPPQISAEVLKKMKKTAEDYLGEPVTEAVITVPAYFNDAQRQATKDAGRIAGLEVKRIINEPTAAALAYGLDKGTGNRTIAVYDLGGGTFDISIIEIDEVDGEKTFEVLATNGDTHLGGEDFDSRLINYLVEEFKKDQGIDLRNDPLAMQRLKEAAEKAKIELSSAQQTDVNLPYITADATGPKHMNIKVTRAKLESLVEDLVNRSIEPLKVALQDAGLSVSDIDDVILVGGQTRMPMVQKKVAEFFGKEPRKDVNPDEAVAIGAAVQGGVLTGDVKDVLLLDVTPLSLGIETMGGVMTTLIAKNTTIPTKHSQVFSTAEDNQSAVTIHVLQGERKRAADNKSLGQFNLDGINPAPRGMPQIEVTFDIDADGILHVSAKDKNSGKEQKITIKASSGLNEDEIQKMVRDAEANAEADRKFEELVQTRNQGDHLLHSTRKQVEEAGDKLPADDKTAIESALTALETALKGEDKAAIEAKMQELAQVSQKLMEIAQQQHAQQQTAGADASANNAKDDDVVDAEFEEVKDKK

Regarding `CC(=O)N[C@@H](Cc1ccc(OCc2ccccc2)cc1)C(=O)N[C@@H](CC(C)C)C(=O)N1CCC[C@H]1C(=O)O` [Structure 3, Ac-Tyr(Bzl)-Leu-Pro-OH] (Ac-Tyr(Bn)-Leu-Pro-OH), the MIC in test [1] (read-out: H. influenzae (Strain 110) MIC (μg/ml)) turned out to be 64 µg/mL (≈ 122 µM); in test [2] (read-out: H. influenzae (Strain 109) MIC (μg/ml)) it was 32 µg/mL (≈ 61.1 µM). In addition, the “inhibition of H. influenzae strain 110 compared with the control pyrrhocoricin” value in test [1] (strain 110) was “surpasses that of pyrrhocoricin”. The pIC50 on DnaK was 3.96. Moreover, on DnaK, the IC50 was 399 µM. For the same compound, the “inhibition of H. influenzae strain 109 compared with the control pyrrhocoricin” value in test [2] was “surpasses that of pyrrhocoricin”.

Take `COC(=O)[C@@H]1CCCN1C(=O)[C@H](CC(C)C)NC(=O)[C@H](Cc1ccc(F)cc1)NC(C)=O` [Structure 10, Ac(4-F)Phe-Leu-Pro-OMe] (Ac-[Phe(4-F)]-Leu-Pro-OMe): the MIC in test [1] (setting [3]) is greater than 128 µg/mL. Also, on DnaK, the pIC50 is 4.59 and the IC50 is 127 µM. For the same compound, the MIC in test [2] (setting [4]) was determined as 32 µg/mL (≈ 71.2 µM). Further, the “inhibition of H. influenzae strain 109 compared with the control pyrrhocoricin” value in test [2] is “lower concentration than the control”.

In the case of `CC(=O)N[C@@H](Cc1ccc(F)cc1)C(=O)N[C@@H](CC(C)C)C(=O)N1CCC[C@H]1C(=O)O` [Structure 11] (Ac-[Phe(4-F)]-Leu-Pro-OH), the MIC in test [1] (setting [3]) is greater than 128 µg/mL. For the same compound, on DnaK, the pIC50 is 4.16 and the IC50 is 363 µM. Further, in test [2] (setting [4]), the MIC was 4 µg/mL (≈ 9.18 µM). In test [2], the “inhibition of H. influenzae strain 109 compared with the control pyrrhocoricin” value is on record as “lower concentration than the control”.

For `CCC(C)[C@H](NC(C)=O)C(=O)N[C@@H](CCCCNC(=O)OCc1ccccc1)C(=O)N1CCC[C@H]1C(=O)O` (stereo partly drawn) [Structure 22, Ac-Ile-Lys(Cbz)-Pro-OH], in test [1] (setting [3]), the MIC is greater than 128 µg/mL. Also, on DnaK, the pIC50 is 4.85 and the IC50 was 50.7 µM. The MIC in test [2] (setting [4]) was found to be 2 µg/mL (≈ 3.75 µM). The “inhibition of H. influenzae strain 109 compared with the control pyrrhocoricin” value in test [2] is on record as “lower concentration than the control”.

In general, pIC50 refers to −log10 of the IC50, conventionally taken in molar units.
